{"source": "paper PMC10803372", "about": "(Cell Death & Disease, 2024)", "target": "T1, PIKfyve (Homo sapiens, UniProt Q9Y2I7)", "T1 construct": "Recombinant GST-PIKfyve (full-length, #11-118)", "T1 sequence (Q9Y2I7 2-2098)": "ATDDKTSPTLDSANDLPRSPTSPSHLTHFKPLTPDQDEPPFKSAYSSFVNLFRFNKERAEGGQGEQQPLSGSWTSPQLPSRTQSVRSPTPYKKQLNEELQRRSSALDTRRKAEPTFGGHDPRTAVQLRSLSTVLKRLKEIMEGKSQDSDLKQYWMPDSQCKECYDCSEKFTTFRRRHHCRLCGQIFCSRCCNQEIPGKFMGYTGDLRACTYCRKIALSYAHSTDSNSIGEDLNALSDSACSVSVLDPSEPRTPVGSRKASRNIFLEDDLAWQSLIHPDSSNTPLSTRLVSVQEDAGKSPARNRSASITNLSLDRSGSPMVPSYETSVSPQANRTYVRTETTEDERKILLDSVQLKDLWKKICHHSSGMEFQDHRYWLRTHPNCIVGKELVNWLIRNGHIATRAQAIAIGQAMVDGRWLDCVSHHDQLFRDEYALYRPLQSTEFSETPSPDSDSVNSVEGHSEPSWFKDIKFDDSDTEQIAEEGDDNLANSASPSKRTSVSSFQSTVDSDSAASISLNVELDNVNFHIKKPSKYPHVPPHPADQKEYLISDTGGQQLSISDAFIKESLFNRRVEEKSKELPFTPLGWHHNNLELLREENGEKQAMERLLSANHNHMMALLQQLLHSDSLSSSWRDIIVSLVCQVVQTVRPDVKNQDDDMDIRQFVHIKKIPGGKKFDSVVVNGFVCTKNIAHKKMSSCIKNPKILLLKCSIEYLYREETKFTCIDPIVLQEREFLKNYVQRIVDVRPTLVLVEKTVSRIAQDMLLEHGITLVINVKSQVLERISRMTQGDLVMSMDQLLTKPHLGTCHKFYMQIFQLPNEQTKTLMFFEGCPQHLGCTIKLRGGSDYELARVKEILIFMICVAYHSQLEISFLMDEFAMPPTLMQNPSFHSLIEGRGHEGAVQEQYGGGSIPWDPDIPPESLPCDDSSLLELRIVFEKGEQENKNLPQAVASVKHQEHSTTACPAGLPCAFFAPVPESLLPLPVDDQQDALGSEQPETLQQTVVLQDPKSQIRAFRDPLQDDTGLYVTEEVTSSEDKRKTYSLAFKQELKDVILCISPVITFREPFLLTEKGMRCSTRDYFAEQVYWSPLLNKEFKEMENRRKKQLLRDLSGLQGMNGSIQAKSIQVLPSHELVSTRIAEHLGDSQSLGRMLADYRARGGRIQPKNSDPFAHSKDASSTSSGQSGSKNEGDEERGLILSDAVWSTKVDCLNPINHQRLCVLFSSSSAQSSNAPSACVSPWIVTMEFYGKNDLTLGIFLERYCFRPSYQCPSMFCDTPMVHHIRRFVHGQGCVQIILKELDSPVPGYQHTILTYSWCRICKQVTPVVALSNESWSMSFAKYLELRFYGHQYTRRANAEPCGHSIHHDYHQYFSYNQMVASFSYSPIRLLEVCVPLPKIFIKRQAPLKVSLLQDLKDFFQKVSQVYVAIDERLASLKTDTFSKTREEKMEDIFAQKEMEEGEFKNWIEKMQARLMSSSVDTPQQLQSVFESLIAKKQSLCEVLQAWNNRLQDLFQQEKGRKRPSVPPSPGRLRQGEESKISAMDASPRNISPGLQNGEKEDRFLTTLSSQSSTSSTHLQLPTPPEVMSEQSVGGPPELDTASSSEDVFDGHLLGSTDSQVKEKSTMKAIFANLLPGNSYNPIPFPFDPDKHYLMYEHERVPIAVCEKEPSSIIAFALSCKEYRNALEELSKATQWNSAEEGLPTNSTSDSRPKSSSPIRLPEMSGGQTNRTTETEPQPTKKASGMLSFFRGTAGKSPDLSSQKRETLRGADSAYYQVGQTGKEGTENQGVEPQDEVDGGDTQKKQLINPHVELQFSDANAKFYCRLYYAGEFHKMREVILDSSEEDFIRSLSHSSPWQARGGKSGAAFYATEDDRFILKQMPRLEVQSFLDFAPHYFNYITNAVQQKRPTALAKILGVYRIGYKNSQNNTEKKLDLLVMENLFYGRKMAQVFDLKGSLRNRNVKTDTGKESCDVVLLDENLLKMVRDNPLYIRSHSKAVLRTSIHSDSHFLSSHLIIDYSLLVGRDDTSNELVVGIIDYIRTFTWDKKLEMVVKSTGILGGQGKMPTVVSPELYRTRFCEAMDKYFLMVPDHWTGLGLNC", "assay": "in vitro lipid kinase assay, ADP-Glo luminescence, PI([…])P substrate", "type": "biochemical"}
{"smiles": "Oc1ccc(-c2nc(-c3ccncc3)c(-c3ccc(F)cc3)[nH]2)cc1", "note": "[SB202190]", "values": [{"measurement": "IC50", "result": "355 ± 36.2", "unit": "nM"}]}
